The values that follow come from patent US20100168103A1, “DIARYL PIPERIDINE COMPOUNDS AS CALCIUM CHANNEL BLOCKERS” (NEUROMED PHARMACEUTICALS LTD., priority 2006, published 2010).

As usually defined, the pIC50 is the IC50 on a negative log10 scale, so that one unit is a factor of ten.

For this assay, the target named is T1, rat brain N-type calcium channel subunits (α1B+α2δ+β1b cDNA subunits) (Rattus norvegicus, UniProt Q02294).
T1 construct: expressed in transfected cells; host or cells: HEK 293
Nature of the assay: N-type calcium channel block, whole cell patch clamp in transfected HEK 293 cells. In kind it is cell-based. The note with it: holding potential −80 mV to +10 mV. The protocol:
N-type calcium channel blocking activity was assayed in human embryonic kidney cells, HEK 293, stably transfected with the rat brain N-type calcium channel subunits (α1B+α2δ+β1b cDNA subunits). Alternatively, N-type calcium channels (α1B+α2δ+β1b cDNA subunits), L-type channels (α1C+α2δ+β1b cDNA subunits) and P/Q-type channels (α1A+α2δ+β1b cDNA subunits) were transiently expressed in HEK 293 cells. Briefly, cells were cultured in Dulbecco's modified eagle medium (DMEM) supplemented with 10% fetal bovine serum, 200 U/ml penicillin and 0.2 mg/ml streptomycin at 37° C. with 5% CO2. At 85% confluency cells were split with 0.25% trypsin/1 mM EDTA and plated at 10% confluency on glass coverslips. At 12 hours the medium was replaced and the cells transiently transfected using a standard calcium phosphate protocol and the appropriate calcium channel cDNA's. Fresh DMEM was supplied and the cells transferred to 28° C./5% CO2. Cells were incubated for 1 to 2 days prior to whole cell recording.
Whole cell patch clamp experiments were performed using an Axopatch 200B amplifier (Axon Instruments, Burlingame, Calif.) linked to a personal computer equipped with pCLAMP software. The external and internal recording solutions contained, respectively, 5 mM BaCl2, 10 mM MgCl2, 10 mM HEPES, 40 mM TEACl, 10 mM glucose, 87.5 mM CsCl (pH 7.2) and 108 mM CsMS, 4 mM MgCl2, 9 mM EGTA, 9 mM HEPES (pH 7.2). Currents were typically elicited from a holding potential of −80 mV to +10 mV using Clampex software (Axon Instruments). Typically, currents were first elicited with low frequency stimulation (0.067 Hz) and allowed to stabilize prior to application of the compounds. The compounds were then applied during the low frequency pulse trains for two to three minutes to assess tonic block, and subsequently the pulse frequency was increased to 0.2 Hz to assess frequency dependent block. Data were analyzed using Clampfit (Axon Instruments) and SigmaPlot 4.0 (Jandel Scientific).
In general terms: Patch clamp records ionic current or voltage across a cell membrane.

[1] abbreviates: low frequency stimulation 0.067 Hz (tonic block), 5 mM BaCl2, read-out: IC50 @ 0.067 Hz.
Setting [2] is: pulse frequency 0.2 Hz (frequency dependent block), 5 mM BaCl2, read-out: IC50 @ 0.2 Hz.

pIC50: −log10 of the molar value. Where two headings read alike, the source gives them in different places. Some results are limits rather than exact numbers.

T1 sequence (Q02294 whole entry): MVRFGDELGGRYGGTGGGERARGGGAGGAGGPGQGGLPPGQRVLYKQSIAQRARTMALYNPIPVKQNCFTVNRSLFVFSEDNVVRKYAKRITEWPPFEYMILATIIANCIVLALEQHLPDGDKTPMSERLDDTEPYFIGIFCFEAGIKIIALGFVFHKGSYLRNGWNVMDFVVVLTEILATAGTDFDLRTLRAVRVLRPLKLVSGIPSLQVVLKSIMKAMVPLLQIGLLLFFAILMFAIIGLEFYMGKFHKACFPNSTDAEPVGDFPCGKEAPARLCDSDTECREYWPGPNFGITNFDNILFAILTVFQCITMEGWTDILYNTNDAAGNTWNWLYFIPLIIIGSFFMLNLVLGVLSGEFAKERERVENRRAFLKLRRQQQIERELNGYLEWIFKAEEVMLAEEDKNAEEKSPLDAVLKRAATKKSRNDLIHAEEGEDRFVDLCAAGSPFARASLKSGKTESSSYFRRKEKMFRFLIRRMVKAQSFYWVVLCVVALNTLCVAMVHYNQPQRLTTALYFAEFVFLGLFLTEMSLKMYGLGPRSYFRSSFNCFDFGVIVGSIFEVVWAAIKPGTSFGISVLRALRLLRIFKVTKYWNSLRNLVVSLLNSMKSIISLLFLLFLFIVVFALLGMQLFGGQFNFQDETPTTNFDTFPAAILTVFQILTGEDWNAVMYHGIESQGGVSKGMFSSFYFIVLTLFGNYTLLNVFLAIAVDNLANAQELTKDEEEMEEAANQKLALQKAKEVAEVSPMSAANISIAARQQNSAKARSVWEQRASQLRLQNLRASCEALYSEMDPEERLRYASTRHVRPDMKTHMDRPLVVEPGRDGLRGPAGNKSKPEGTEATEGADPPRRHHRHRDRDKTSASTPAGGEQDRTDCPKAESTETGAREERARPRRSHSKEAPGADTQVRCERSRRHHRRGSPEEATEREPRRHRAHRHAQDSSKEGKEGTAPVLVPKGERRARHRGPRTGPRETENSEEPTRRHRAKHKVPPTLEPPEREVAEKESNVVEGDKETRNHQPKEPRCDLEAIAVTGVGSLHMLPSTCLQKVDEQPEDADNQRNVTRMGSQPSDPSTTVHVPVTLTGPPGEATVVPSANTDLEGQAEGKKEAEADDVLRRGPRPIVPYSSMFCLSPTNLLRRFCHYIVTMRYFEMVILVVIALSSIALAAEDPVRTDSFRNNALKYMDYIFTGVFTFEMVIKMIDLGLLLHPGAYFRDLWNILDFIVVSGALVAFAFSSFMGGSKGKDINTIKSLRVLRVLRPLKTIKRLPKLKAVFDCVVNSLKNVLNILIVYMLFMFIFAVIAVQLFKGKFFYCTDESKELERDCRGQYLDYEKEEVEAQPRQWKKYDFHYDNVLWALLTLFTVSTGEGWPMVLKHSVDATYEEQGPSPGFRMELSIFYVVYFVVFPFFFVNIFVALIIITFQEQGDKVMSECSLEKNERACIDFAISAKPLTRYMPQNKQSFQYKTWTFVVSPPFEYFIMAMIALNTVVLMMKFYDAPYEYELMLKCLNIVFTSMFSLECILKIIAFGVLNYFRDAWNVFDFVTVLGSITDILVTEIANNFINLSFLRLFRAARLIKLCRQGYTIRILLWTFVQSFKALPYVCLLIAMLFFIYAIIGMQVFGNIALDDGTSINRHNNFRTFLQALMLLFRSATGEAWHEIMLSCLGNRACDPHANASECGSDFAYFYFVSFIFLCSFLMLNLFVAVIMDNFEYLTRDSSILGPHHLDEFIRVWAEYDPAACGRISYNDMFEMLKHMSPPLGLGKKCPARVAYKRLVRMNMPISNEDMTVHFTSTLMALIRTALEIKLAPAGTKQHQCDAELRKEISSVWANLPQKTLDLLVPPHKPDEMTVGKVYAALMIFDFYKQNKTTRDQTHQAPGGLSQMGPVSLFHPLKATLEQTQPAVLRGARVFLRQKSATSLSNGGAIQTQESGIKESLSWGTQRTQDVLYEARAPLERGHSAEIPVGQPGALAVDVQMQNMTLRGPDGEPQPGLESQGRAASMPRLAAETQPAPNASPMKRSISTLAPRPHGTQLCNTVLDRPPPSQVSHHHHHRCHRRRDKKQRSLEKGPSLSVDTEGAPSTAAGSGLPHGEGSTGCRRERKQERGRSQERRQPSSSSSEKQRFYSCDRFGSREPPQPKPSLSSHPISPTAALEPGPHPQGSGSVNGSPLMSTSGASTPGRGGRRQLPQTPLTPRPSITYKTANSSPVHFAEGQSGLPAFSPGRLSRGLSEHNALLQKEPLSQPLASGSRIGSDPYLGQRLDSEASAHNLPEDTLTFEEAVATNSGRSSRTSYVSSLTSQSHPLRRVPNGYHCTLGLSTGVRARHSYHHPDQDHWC
T1 sequence (P54290 25-944 partner limits assumed): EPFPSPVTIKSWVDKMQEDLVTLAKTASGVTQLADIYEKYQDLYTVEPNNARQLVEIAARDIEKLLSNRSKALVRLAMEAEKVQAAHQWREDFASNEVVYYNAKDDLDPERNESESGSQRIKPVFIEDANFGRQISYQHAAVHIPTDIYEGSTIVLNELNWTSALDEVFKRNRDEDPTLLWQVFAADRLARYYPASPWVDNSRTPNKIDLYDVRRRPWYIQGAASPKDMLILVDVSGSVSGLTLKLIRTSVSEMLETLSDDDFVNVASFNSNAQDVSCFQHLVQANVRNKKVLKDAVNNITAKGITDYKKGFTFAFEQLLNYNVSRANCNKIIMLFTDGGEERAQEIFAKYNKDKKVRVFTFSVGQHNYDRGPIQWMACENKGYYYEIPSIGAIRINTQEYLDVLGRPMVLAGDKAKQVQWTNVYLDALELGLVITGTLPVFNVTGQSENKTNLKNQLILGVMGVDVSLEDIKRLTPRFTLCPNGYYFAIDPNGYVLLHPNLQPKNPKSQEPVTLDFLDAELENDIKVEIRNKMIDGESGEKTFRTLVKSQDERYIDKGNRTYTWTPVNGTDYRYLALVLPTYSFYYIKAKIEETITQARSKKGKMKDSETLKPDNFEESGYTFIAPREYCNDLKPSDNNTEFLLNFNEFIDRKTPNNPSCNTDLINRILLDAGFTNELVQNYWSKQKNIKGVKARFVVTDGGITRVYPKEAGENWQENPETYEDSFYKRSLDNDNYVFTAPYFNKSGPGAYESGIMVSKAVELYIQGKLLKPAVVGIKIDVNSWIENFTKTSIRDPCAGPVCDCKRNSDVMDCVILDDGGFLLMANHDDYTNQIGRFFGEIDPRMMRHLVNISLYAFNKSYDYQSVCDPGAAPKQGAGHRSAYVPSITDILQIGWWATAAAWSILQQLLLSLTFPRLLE
T1 sequence (P54290 945-1091 partner limits assumed): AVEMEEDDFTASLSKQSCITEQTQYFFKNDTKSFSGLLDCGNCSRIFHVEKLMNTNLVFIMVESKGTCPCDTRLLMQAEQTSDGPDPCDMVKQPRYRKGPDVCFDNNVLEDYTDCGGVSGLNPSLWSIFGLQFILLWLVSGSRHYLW
T1 sequence (P54283 whole entry partner): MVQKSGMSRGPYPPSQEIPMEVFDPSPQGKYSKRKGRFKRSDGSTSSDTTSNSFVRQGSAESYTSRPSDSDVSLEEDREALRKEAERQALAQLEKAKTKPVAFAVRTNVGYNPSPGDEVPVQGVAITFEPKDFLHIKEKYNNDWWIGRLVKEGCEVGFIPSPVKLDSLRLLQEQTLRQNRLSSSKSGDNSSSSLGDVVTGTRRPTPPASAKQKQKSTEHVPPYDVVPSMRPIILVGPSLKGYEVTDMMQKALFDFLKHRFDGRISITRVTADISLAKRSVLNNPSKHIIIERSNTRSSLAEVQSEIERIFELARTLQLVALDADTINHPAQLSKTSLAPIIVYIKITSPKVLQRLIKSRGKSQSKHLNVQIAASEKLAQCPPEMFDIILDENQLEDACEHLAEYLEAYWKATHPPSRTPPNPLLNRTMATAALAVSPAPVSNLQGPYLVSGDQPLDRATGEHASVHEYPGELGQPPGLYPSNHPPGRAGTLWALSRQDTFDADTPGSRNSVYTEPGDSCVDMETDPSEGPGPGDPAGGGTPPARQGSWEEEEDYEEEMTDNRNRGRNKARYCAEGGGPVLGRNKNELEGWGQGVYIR

Regarding `CN1CCN(CC2CCN(C(=O)COC(c3ccccc3)c3ccccc3)CC2)CC1` [Compound 4, 2-(benzhydryloxy)-1-(4-((4-methylpiperazin-1-yl)methyl)piperidin-1-yl)ethanone], the pIC50 is less than 5.25 under setting [1] and less than 5.42 under setting [2].

Regarding `CN1CCN(CC2CCN(C(=O)C[S+]([O-])C(c3ccccc3)c3ccccc3)CC2)CC1` (centres unmarked) [Compound 6, 2-(benzhydrylsulfinyl)-1-(4-((4-methylpiperazin-1-yl)methyl)piperidin-1-yl)ethanone], the pIC50 runs as follows: under setting [1], 5.07; under setting [2], 5.28.

Regarding `CN1CCN(C(=O)C2CCN(C(=O)CNC(c3ccccc3)c3ccccc3)CC2)CC1` [Compound 7, 2-(benzhydrylamino)-1-(4-(4-methylpiperazine-1-carbonyl)piperidin-1-yl)ethanone], the pIC50 under setting [1] is 5.32 and the pIC50 under setting [2] was 5.62.

Consider `CN1CCN(C(=O)C2CCN(C(=O)COC(c3ccccc3)c3ccccc3)CC2)CC1` [Compound 8, 2-(benzhydryloxy)-1-(4-(4-methylpiperazine-1-carbonyl)piperidin-1-yl)ethanone], for which the pIC50 under setting [1] was 5.29 and the negative logarithm of the IC50 (pIC50) under setting [2] was 5.76.

Regarding `CN1CCN(C(=O)C2CCN(C(=O)C[S+]([O-])C(c3ccccc3)c3ccccc3)CC2)CC1` (centres unmarked) [Compound 9, 2-(benzhydrylsulfinyl)-1-(4-(4-methylpiperazine-1-carbonyl)piperidin-1-yl)ethanone], the negative-log IC50 (pIC50) under setting [1] is 5.62 and the pIC50 under setting [2] is 5.74.

In the case of `CN1CCN(CC2CCN(C(=O)CC(c3ccccc3)c3ccccc3)CC2)CC1` [Compound 10, 1-(4-((4-methylpiperazin-1-yl)methyl)piperidin-1-yl)-3,3-diphenylpropanon-1-one], the negative logarithm of the IC50 (pIC50) runs as follows: under setting [1], 5.60; under setting [2], 5.76.

Turning to `CN1CCN(CC2CCN(C(=O)NC(c3ccccc3)c3ccccc3)CC2)CC1` [Compound 11, N-benzhydryl-4-((4-methylpiperazine-1-yl)methyl)piperidine-1-carboxamide], the negative logarithm of the IC50 (pIC50) is, setting by setting: under setting [1], 4.55; under setting [2], 5.82.

With `CN1CCN(C(=O)C2CCN(C(=O)CC(c3ccccc3)c3ccccc3)CC2)CC1` [Compound 12, 1-(4-(4-methylpiperazine-1-carbonyl)piperidin-1-yl)-3,3-diphenylpropan-1-one], the negative-log IC50 (pIC50) under setting [1] is 5.90 and the pIC50 under setting [2] is 6.12.

Turning to `CN1CCN(C(=O)C2CCN(C(=O)NC(c3ccccc3)c3ccccc3)CC2)CC1` [Compound 13, N-benzhydryl-4-(4-methylpiperazine-1-carbonyl)piperidine-1-carboxamide], the negative-log IC50 (pIC50) runs as follows: under setting [1], 5.35; under setting [2], 5.66.

`Cc1ccccc1C(CC(=O)N1CCC(CN2CCN(C)CC2)CC1)c1ccccc1C` [Compound 14, 1-(4-((4-methylpiperazin-1-yl)methyl)piperidin-1-yl)-3,3-di-o-tolylpropan-1-one]: the pIC50 under setting [1] is 5.72 and the pIC50 under setting [2] was 5.97.

Consider `Cc1ccccc1C(CC(=O)N1CCC(CN2CC(C)NC(C)C2)CC1)c1ccccc1C` (centres unmarked) [Compound 15, 1-(4-((3,5-dimethylpiperazin-1-yl)methyl)piperidin-1-yl)-3,3-di-o-tolylpropan-1-one], for which the pIC50 is 5.73 under setting [1] and 5.79 under setting [2].

In the case of `Cc1ccccc1C(CC(=O)N1CCC(C(=O)N2CC(C)NC(C)C2)CC1)c1ccccc1C` (centres unmarked) [Compound 16, 1-(4-(3,5-dimethylpiperazine-1-carbonyl)piperidin-1-yl)-3,3-di-o-tolylpropan-1-one], the pIC50 was 5.23 under setting [1] and 5.43 under setting [2].

In the case of `Cc1ccccc1C(CC(=O)N1CCC(C(=O)N2CCNCC2)CC1)c1ccccc1C` [Compound 17, 1-(4-(piperazine-1-carbonyl)piperidin-1-yl)-3,3-di-o-tolylpropan-1-one], the pIC50 under setting [1] is 5.45 and the pIC50 under setting [2] is 5.73.

For `CC1CN(CC2CCN(C(=O)COC(c3ccccc3)c3ccccc3)CC2)CC(C)N1` (centres unmarked) [Compound 18, 2-(benzhydryloxy)-1-(4-((3,5-dimethylpiperazin-1-yl)methyl)piperidin-1-yl)ethanone], the pIC50 by setting is: under setting [1], 5.73; under setting [2], 5.93.

In the case of `CC1CN(CC2CCN(C(=O)C[S+]([O-])C(c3ccccc3)c3ccccc3)CC2)CC(C)N1` (centres unmarked) [Compound 19, 2-(benzhydrylsulfinyl)-1-(4-((3,5-dimethylpiperazin-1-yl)methyl)piperidin-1-yl)ethanone], the pIC50 is, setting by setting: under setting [1], 5.43; under setting [2], 5.62.

`CC1CN(C(=O)C2CCN(C(=O)CNC(c3ccccc3)c3ccccc3)CC2)CC(C)N1` (centres unmarked) [Compound 20, 2-(benzhydrylamino)-1-(4-(3,5-dimethylpiperazine-1-carbonyl)piperidin-1-yl)ethanone]: the pIC50 is, setting by setting: under setting [1], 5.06; under setting [2], 5.52.

Consider `CC1CN(C(=O)C2CCN(C(=O)COC(c3ccccc3)c3ccccc3)CC2)CC(C)N1` (centres unmarked) [Compound 21, 2-(benzhydryloxy)-1-(4-(3,5-dimethylpiperazine-1-carbonyl)piperidin-1-yl)ethanone], for which the pIC50 is 5.79 under setting [1] and 6.00 under setting [2].

`CC1CN(CC2CCN(C(=O)CC(c3ccccc3)c3ccccc3)CC2)CC(C)N1` (centres unmarked) [Compound 23, 1-(4-((3,5-dimethylpiperazin-1-yl)methyl)piperidin-1-yl)-3,3-diphenylpropan-1-one]: the pIC50 under setting [1] is less than 5.33 and the pIC50 under setting [2] is less than 5.41.

Take `CC1CN(C(=O)C2CCN(C(=O)CC(c3ccccc3)c3ccccc3)CC2)CC(C)N1` (centres unmarked) [Compound 24, 1-(4-(3,5-dimethylpiperazine-1-carbonyl)piperidin-1-yl)-3,3-diphenylpropan-1-one]: the negative logarithm of the IC50 (pIC50) by setting is: under setting [1], less than 5.26; under setting [2], less than 5.45.

`CC1CN(C(=O)C2CCN(C(=O)NC(c3ccccc3)c3ccccc3)CC2)CC(C)N1` (centres unmarked) [Compound 25, N-benzhydryl-4-(3,5-dimethylpiperazine-1-carbonyl)piperidine-1-carboxamide]: the negative-log IC50 (pIC50) is, setting by setting: under setting [1], less than 5.19; under setting [2], 5.01.

Turning to `CC1CN(C(=O)C2(c3ccccc3)CCN(C(=O)CC(c3ccccc3)c3ccccc3)CC2)CC(C)N1` (centres unmarked) [Compound 26, 1-(4-(3,5-dimethylpiperazine-1-carbonyl)-4-phenylpiperidin-1-yl)-3,3-diphenylpropan-1-one], the pIC50 under setting [1] was 5.88 and the pIC50 under setting [2] is 6.07.

As for `Cc1ccccc1C(CC(=O)N1CCC(C(=O)N2CC(C)NC(C)C2)(c2ccccc2)CC1)c1ccccc1C` (centres unmarked) [Compound 27, 1-(4-(3,5-dimethylpiperazine-1-carbonyl)-4-phenylpiperidin-1-yl)-3,3-di-o-tolylpropan-1-one], the negative-log IC50 (pIC50) by setting is: under setting [1], 6.39; under setting [2], 6.62.

Regarding `CC1CN(C(=O)C2(c3ccccc3)CCN(C(=O)CNC(c3ccccc3)c3ccccc3)CC2)CC(C)N1` (centres unmarked) [Compound 28, 2-(benzhydrylamino)-1-(4-(3,5-dimethylpiperazine-1-carbonyl)-4-phenylpiperidin-1-yl)ethanone], the negative-log IC50 (pIC50) is 5.56 under setting [1] and 5.79 under setting [2].

As for `CC1CN(CC2(c3ccccc3)CCN(C(=O)CC(c3ccccc3)c3ccccc3)CC2)CC(C)N1` (centres unmarked) [Compound 30, 1-(4-((3,5-dimethylpiperazin-1-yl)methyl)-4-phenylpiperidin-1-yl)-3,3-diphenylpropan-1-one], the negative-log IC50 (pIC50) was 6.31 under setting [1] and 6.49 under setting [2].

`Cc1ccccc1C(CC(=O)N1CCC(CN2CC(C)NC(C)C2)(c2ccccc2)CC1)c1ccccc1C` (centres unmarked) [Compound 31, 1-(4-((3,5-dimethylpiperazin-1-yl)methyl)-4-phenylpiperidin-1-yl)-3,3-di-o-tolylpropan-1-one]: the pIC50 is 6.21 under setting [1] and 6.51 under setting [2].

With `CN1CCN(C(=O)C2(c3ccccc3)CCN(C(=O)CNC(c3ccccc3)c3ccccc3)CC2)CC1` [Compound 36, 2-(benzhydrylamino)-1-(4-(4-methylpiperazine-1-carbonyl)-4-phenylpiperidin-1-yl)ethanone], the pIC50 runs as follows: under setting [1], less than 4.67; under setting [2], less than 4.90.

Turning to `Cc1ccccc1C(CC(=O)N1CCC(C(=O)N2CCN(C)CC2)(c2ccccc2)CC1)c1ccccc1C` [Compound 37, 1-(4-(4-methylpiperazine-1-carbonyl)-4-phenylpiperidin-1-yl)-3,3-di-o-tolylpropan-1-one], the pIC50 reads like this: under setting [1], 6.42; under setting [2], 6.54.

In the case of `CN1CCN(C(=O)C2(c3ccccc3)CCN(C(=O)NC(c3ccccc3)c3ccccc3)CC2)CC1` [Compound 38, N-benzhydryl-4-(4-methylpiperazine-1-carbonyl)-4-phenylpiperidine-1-carboxamide], the pIC50 runs as follows: under setting [1], less than 5.64; under setting [2], 5.85.
